From patent US20230121689A1, “CEPHALOSPORIN ANTIBACTERIAL COMPOUND AND PHARMACEUTICAL APPLICATION THEREOF” (priority 2020, published 2023)
≈ marks a conversion by molar mass, not a printed value.

What was measured:
Assay in all cases: Test Example 1: antibacterial activity test (MIC)
Assay type in all cases: cell-based
[1] = test system: Carbapenem-resistant Pseudomonas aeruginosa (CRPA)
Experimental: (§1) The test compounds were diluted in a gradient and used for an MIC assay on the test strains. The test compounds at an initial assay concentration of 32 μg/mL were diluted in a 2-fold gradient (11 concentration points in total), and two duplicate wells were set for each concentration. Additional wells without drug dosing were set as growth controls. The minimum inhibitory concentration (MIC) assay was performed with reference to the Clinical and Laboratory Standards Institute (CLSI) guidelines.
(§2) After the frozen strains were subcultured, a single colony was picked and re-suspended in normal saline or sterile water in a tube. The bacterial suspension was vortexed and adjusted to 0.5 McF using a spectrophotometer at the wavelength of 530 nm. The bacterial solution was taken by a pipette, added to a culture medium, diluted and mixed well, and seeded to a bacterial assay plate.
(§3) The 96-well plate was affixed with a disposable sealing film, shaken and mixed well, and visually observed using a plate reader. The minimum concentration of the compounds capable of inhibiting the growth of bacteria was defined as MIC as compared to the growth controls.

[2] = test system: Carbapenem-resistant Enterobacteriaceae (CRE)
Experimental: as §1, §2, §3

[3] = test system: Carbapenem-resistant Acinetobacter baumannii (CRAB)
Experimental: as §1, §2, §3

| SMILES | MIC ([1]; CRPA strain No. 100110) | MIC ([1]; CRPA strain No. 110163) | MIC ([1]; CRPA strain No. 110224) | MIC ([1]; CRPA strain No. 110358) | MIC ([1]; CRPA strain No. 110390) | MIC ([2]; CRE strain No. 100109) | MIC ([2]; CRE strain No. 100186) | MIC ([2]; CRE strain No. 110502) | MIC ([2]; CRE strain No. 110525) | MIC ([2]; CRE strain No. 311277) | MIC ([3]; CRAB strain No. 100085) | MIC ([3]; CRAB strain No. 100333) | MIC ([3]; CRAB strain No. 110440) | MIC ([3]; CRAB strain No. 110477) | MIC ([3]; CRAB strain No. 110517) |
| --- | --- | --- | --- | --- | --- | --- | --- | --- | --- | --- | --- | --- | --- | --- | --- |
| CC(C)(O/N=C(\C(=O)N[C@@H]1C(=O)N2C(C(=O)O)=C(C[N+]3(CCNC(=S)Nc4ccc(O)c(O)c4Cl)CCCC3)CS[C@H]12)c1csc(N)n1)C(=O)O [Compound 4] | 16 µg/mL | > 32 µg/mL | > 32 µg/mL | > 32 µg/mL | > 32 µg/mL | > 32 µg/mL | > 32 µg/mL | > 32 µg/mL | > 32 µg/mL | > 32 µg/mL | > 32 µg/mL | > 32 µg/mL | > 32 µg/mL | > 32 µg/mL | > 32 µg/mL |
| CC(C)(O/N=C(\C(=O)N[C@@H]1C(=O)N2C(C(=O)[O-])=C(C[N+]3(CCCC[C@H](N)C(=O)O)CCCC3)CSC12)c1csc(N)n1)C(=O)O (stereo partly drawn) [Compound 1] | 16 µg/mL (≈ 24 µM) | > 32 µg/mL | 32 µg/mL (≈ 47.9 µM) | > 32 µg/mL | > 32 µg/mL | > 32 µg/mL | > 32 µg/mL | > 32 µg/mL | > 32 µg/mL | > 32 µg/mL | > 32 µg/mL | > 32 µg/mL | > 32 µg/mL | > 32 µg/mL | > 32 µg/mL |
| CON(CC[N+]1(CC2=C(C(=O)O)N3C(=O)[C@@H](NC(=O)/C(=N\OC(C)(C)C(=O)O)c4csc(N)n4)[C@H]3SC2)CCCC1)C(=O)c1ccc(O)c(O)c1Cl [Compound 3] | 0.562 µg/mL | 1 µg/mL | 1 µg/mL | 2 µg/mL | 2 µg/mL | 3 µg/mL | 6 µg/mL | > 32 µg/mL | 16 µg/mL | 8 µg/mL | 3 µg/mL | 6 µg/mL | 4 µg/mL | 4 µg/mL | 1 µg/mL |
| CC(C)(O/N=C(\C(=O)N[C@@H]1C(=O)N2C(C(=O)O)=C(C[N+]3(CCN(O)C(=O)c4ccc(O)c(O)c4Cl)CCCC3)CS[C@H]12)c1csc(N)n1)C(=O)O [Compound 6] | 0.063 µg/mL | 0.5 µg/mL | 0.625 µg/mL | 4 µg/mL | 2 µg/mL | 2 µg/mL | 1.5 µg/mL | 32 µg/mL | 4 µg/mL | 8 µg/mL | 3 µg/mL | 6 µg/mL | 4 µg/mL | 3 µg/mL | 1 µg/mL |
